The text below walks through data of ChEMBL document CHEMBL5154774, “Discovery of Novel Celastrol-Imidazole Derivatives with Anticancer Activity In Vitro and In Vivo” (J Med Chem, 2022).

Assay type in all cases: functional, cell-based
One experiment deals with A549. The experiment is described as follows: Antiproliferative activity against human A549 cells assessed as inhibition of cell growth incubated for 48 hrs by MTT assay. Conditions: A549, 48 h.
The test system of a further experiment is HCT-116. The experiment is described as follows: Antiproliferative activity against human HCT-116 cells assessed as inhibition of cell growth incubated for 48 hrs by MTT assay. Conditions: HCT-116, 48 h. (Tetrazolium dyes change colour on reduction, which living cells bring about.)
In the next experiment the test system is U2OS. The experiment is described as follows: Antiproliferative activity against human U2OS cells assessed as inhibition of cell growth incubated for 48 hrs by MTT assay.
The subject of the next experiment is MDA-MB-231. Put plainly: Antiproliferative activity against human MDA-MB-231 cells assessed as inhibition of cell growth incubated for 48 hrs by MTT assay. Conditions: MDA-MB-231, 48 h.

In general, IC50 refers to the point on the concentration scale where inhibition reaches its midpoint. Turning to `CC1=C(O)C(=O)C=C2C1=CC=C1[C@@]2(C)CC[C@@]2(C)[C@@H]3C[C@](C)(C(=O)OCCCn4cnc([N+](=O)[O-])c4)CC[C@]3(C)CC[C@]12C`, the IC50 in the experiment with A549 worked out at 670 nM; in the experiment on HCT-116, 630 nM; with U2OS it was 700 nM; with MDA-MB-231, 690 nM.
Regarding `CC1=C(O)C(=O)C=C2C1=CC=C1[C@@]2(C)CC[C@@]2(C)[C@@H]3C[C@](C)(C(=O)OCCCn4cnc(C)c4)CC[C@]3(C)CC[C@]12C`, the IC50 came to 1970 nM in the experiment with A549, 1290 nM in the experiment on HCT-116, 1450 nM with U2OS and 1550 nM with MDA-MB-231.
As to `CC1=C(O)C(=O)C=C2C1=CC=C1[C@@]2(C)CC[C@@]2(C)[C@@H]3C[C@](C)(C(=O)OCCCCCCn4cc([N+](=O)[O-])nc4Cl)CC[C@]3(C)CC[C@]12C`, the IC50 is 900 nM in the experiment with A549, 1120 nM with HCT-116, 910 nM in the experiment on U2OS and 990 nM in the experiment on MDA-MB-231.
On to `CC1=C(O)C(=O)C=C2C1=CC=C1[C@@]2(C)CC[C@@]2(C)[C@@H]3C[C@](C)(C(=O)OCCCCCCn4cnc([N+](=O)[O-])c4)CC[C@]3(C)CC[C@]12C`, for which the IC50 in the experiment with A549 stood at 790 nM; with HCT-116 it was 630 nM; with U2OS, 880 nM; in the experiment with MDA-MB-231, 950 nM.
On to `COC(=O)[C@]12CCC(C)(C)C[C@H]1[C@H]1C(=O)C=C3[C@@]4(C)C=C(C#N)C(=O)C(C)(C)[C@@H]4CC[C@@]3(C)[C@]1(C)CC2` [BARDOXOLONE METHYL], for which the IC50 with A549 is 630 nM; in the experiment with HCT-116, 840 nM; with U2OS, 740 nM; with MDA-MB-231, 560 nM.
Take `CC1=C(O)C(=O)C=C2C1=CC=C1[C@@]2(C)CC[C@@]2(C)[C@@H]3C[C@](C)(C(=O)OCCCCCn4cnc(C#N)c4C#N)CC[C@]3(C)CC[C@]12C`: the IC50 with A549 was 1450 nM; in the experiment on HCT-116, 790 nM; in the experiment on U2OS it was 1470 nM; with MDA-MB-231, 1570 nM.
In the case of `COC(=O)c1cn(CCCCCOC(=O)[C@]2(C)CC[C@]3(C)CC[C@]4(C)C5=CC=C6C(=CC(=O)C(O)=C6C)[C@]5(C)CC[C@@]4(C)[C@@H]3C2)cn1`, the IC50 in the experiment on A549 stood at 780 nM; in the experiment with HCT-116, 670 nM; in the experiment on U2OS it was 880 nM; in the experiment on MDA-MB-231, 1550 nM.
On to `CC1=C(O)C(=O)C=C2C1=CC=C1[C@@]2(C)CC[C@@]2(C)[C@@H]3C[C@](C)(C(=O)OCCCCn4ccnc4[N+](=O)[O-])CC[C@]3(C)CC[C@]12C`, for which the IC50 with A549 turned out to be 1060 nM; in the experiment on HCT-116, 1550 nM; in the experiment on U2OS, 910 nM; with MDA-MB-231 it was 1020 nM.
For the compound `CC1=C(O)C(=O)C=C2C1=CC=C1[C@@]2(C)CC[C@@]2(C)[C@@H]3C[C@](C)(C(=O)OCCCn4ccnc4[N+](=O)[O-])CC[C@]3(C)CC[C@]12C`, the IC50 in the experiment with A549 was found to be 750 nM; in the experiment on HCT-116, 1050 nM; in the experiment with U2OS it was 800 nM; with MDA-MB-231 it was 900 nM.
The like results for `CC1=C(O)C(=O)C=C2C1=CC=C1[C@@]2(C)CC[C@@]2(C)[C@@H]3C[C@](C)(C(=O)OCCCCn4cnc(C#N)c4C#N)CC[C@]3(C)CC[C@]12C` were, in that order, 1660 nM, 1530 nM, 1580 nM and 1670 nM.
The matching figures for `CC1=C(O)C(=O)C=C2C1=CC=C1[C@@]2(C)CC[C@@]2(C)[C@@H]3C[C@](C)(C(=O)OCCCCCn4ccnc4[N+](=O)[O-])CC[C@]3(C)CC[C@]12C`: 710 nM, 600 nM, 680 nM and 980 nM.
The like results for `CC1=C(O)C(=O)C=C2C1=CC=C1[C@@]2(C)CC[C@@]2(C)[C@@H]3C[C@](C)(C(=O)OCCCCCn4cnc([N+](=O)[O-])c4)CC[C@]3(C)CC[C@]12C` were, in that order, 710 nM, 610 nM, 600 nM and 600 nM.
As for `CC1=C(O)C(=O)C=C2C1=CC=C1[C@@]2(C)CC[C@@]2(C)[C@@H]3C[C@](C)(C(=O)OCCCn4cc([N+](=O)[O-])nc4Br)CC[C@]3(C)CC[C@]12C`, the IC50 in the experiment with A549 came out at 800 nM; with HCT-116, 660 nM; in the experiment with U2OS, 600 nM; in the experiment with MDA-MB-231, 1150 nM.
For `CC1=C(O)C(=O)C=C2C1=CC=C1[C@@]2(C)CC[C@@]2(C)[C@@H]3C[C@](C)(C(=O)OCCCn4ccnc4)CC[C@]3(C)CC[C@]12C`, the IC50 in the experiment on A549 was 1570 nM; in the experiment with HCT-116, 1090 nM; with U2OS, 1650 nM; with MDA-MB-231 it was 1550 nM.
As to `CC1=C(O)C(=O)C=C2C1=CC=C1[C@@]2(C)CC[C@@]2(C)[C@@H]3C[C@](C)(C(=O)OCCCCn4cc([N+](=O)[O-])nc4Cl)CC[C@]3(C)CC[C@]12C`, the IC50 in the experiment on A549 came to 790 nM; with HCT-116, 720 nM; in the experiment with U2OS, 620 nM; in the experiment on MDA-MB-231, 1020 nM.
Consider `CC1=C(O)C(=O)C=C2C1=CC=C1[C@@]2(C)CC[C@@]2(C)[C@@H]3C[C@](C)(C(=O)OCCCCCCn4ccnc4[N+](=O)[O-])CC[C@]3(C)CC[C@]12C`, for which the IC50 came out at 730 nM in the experiment on A549, 640 nM with HCT-116, 830 nM with U2OS and 1210 nM in the experiment on MDA-MB-231.
In the case of `COC(=O)c1cn(CCCCOC(=O)[C@]2(C)CC[C@]3(C)CC[C@]4(C)C5=CC=C6C(=CC(=O)C(O)=C6C)[C@]5(C)CC[C@@]4(C)[C@@H]3C2)cn1`, the IC50 in the experiment on A549 was 1040 nM; in the experiment with HCT-116, 950 nM; with U2OS it was 1520 nM; with MDA-MB-231, 1870 nM.
On to `CC1=C(O)C(=O)C=C2C1=CC=C1[C@@]2(C)CC[C@@]2(C)[C@@H]3C[C@](C)(C(=O)OCCCCCn4cc([N+](=O)[O-])nc4Br)CC[C@]3(C)CC[C@]12C`, for which the IC50 with A549 was 810 nM; with HCT-116, 1100 nM; in the experiment on U2OS it was 670 nM; in the experiment with MDA-MB-231, 980 nM.
Regarding `CC1=C(O)C(=O)C=C2C1=CC=C1[C@@]2(C)CC[C@@]2(C)[C@@H]3C[C@](C)(C(=O)OC/C=C/Cn4cnc([N+](=O)[O-])c4)CC[C@]3(C)CC[C@]12C`, the half-maximal inhibitory concentration (IC50) turned out to be 710 nM in the experiment on A549, 640 nM in the experiment with HCT-116, 710 nM in the experiment with U2OS and 1030 nM in the experiment with MDA-MB-231.
In the case of `CC1=C(O)C(=O)C=C2C1=CC=C1[C@@]2(C)CC[C@@]2(C)[C@@H]3C[C@](C)(C(=O)OC/C=C/Cn4cc([N+](=O)[O-])nc4Cl)CC[C@]3(C)CC[C@]12C`, the IC50 in the experiment with A549 is 810 nM; in the experiment with HCT-116, 700 nM; in the experiment on U2OS, 610 nM; with MDA-MB-231 it was 980 nM.
As for `CC1=C(O)C(=O)C=C2C1=CC=C1[C@@]2(C)CC[C@@]2(C)[C@@H]3C[C@](C)(C(=O)OCCCCn4cc([N+](=O)[O-])nc4Br)CC[C@]3(C)CC[C@]12C`, the IC50 with A549 is 930 nM; with HCT-116 it was 1850 nM; with U2OS it was 680 nM; in the experiment on MDA-MB-231, 1220 nM.
The matching figures for `CC1=C(O)C(=O)C=C2C1=CC=C1[C@@]2(C)CC[C@@]2(C)[C@@H]3C[C@](C)(C(=O)OCCCCn4cnc([N+](=O)[O-])c4)CC[C@]3(C)CC[C@]12C`: 770 nM, 700 nM, 890 nM and 890 nM.
For the compound `CC1=C(O)C(=O)C=C2C1=CC=C1[C@@]2(C)CC[C@@]2(C)[C@@H]3C[C@](C)(C(=O)OCCCn4cnc(C#N)c4C#N)CC[C@]3(C)CC[C@]12C`, the IC50 with A549 was 790 nM; with HCT-116, 720 nM; in the experiment on U2OS, 1450 nM; in the experiment on MDA-MB-231, 1450 nM.
On to `COC(=O)c1cn(CCCOC(=O)[C@]2(C)CC[C@]3(C)CC[C@]4(C)C5=CC=C6C(=CC(=O)C(O)=C6C)[C@]5(C)CC[C@@]4(C)[C@@H]3C2)cn1`, for which the IC50 with A549 was 740 nM; in the experiment with HCT-116, 690 nM; in the experiment on U2OS it was 1350 nM; in the experiment with MDA-MB-231, 1650 nM.
`CC1=C(O)C(=O)C=C2C1=CC=C1[C@@]2(C)CC[C@@]2(C)[C@@H]3C[C@](C)(C(=O)OCCCCCCn4cnc(C#N)c4C#N)CC[C@]3(C)CC[C@]12C`: the IC50 in the experiment on A549 stood at 1080 nM; in the experiment on HCT-116 it was 1160 nM; in the experiment with U2OS, 1730 nM; with MDA-MB-231, 1660 nM.
The matching figures for `CC1=C(O)C(=O)C=C2C1=CC=C1[C@@]2(C)CC[C@@]2(C)[C@@H]3C[C@](C)(C(=O)OCCCCCCn4cc([N+](=O)[O-])nc4Br)CC[C@]3(C)CC[C@]12C`: 1320 nM, 1930 nM, 1460 nM and 1050 nM.
In the case of `CC1=C(O)C(=O)C=C2C1=CC=C1[C@@]2(C)CC[C@@]2(C)[C@@H]3C[C@](C)(C(=O)OCCCCCn4cc([N+](=O)[O-])nc4Cl)CC[C@]3(C)CC[C@]12C`, the IC50 was found to be 750 nM in the experiment with A549, 780 nM in the experiment with HCT-116, 600 nM in the experiment on U2OS and 930 nM in the experiment on MDA-MB-231.
In the case of `COC(=O)c1cn(CCCCCCOC(=O)[C@]2(C)CC[C@]3(C)CC[C@]4(C)C5=CC=C6C(=CC(=O)C(O)=C6C)[C@]5(C)CC[C@@]4(C)[C@@H]3C2)cn1`, the IC50 with A549 amounted to 1090 nM; with HCT-116 it was 1340 nM; in the experiment with U2OS, 1480 nM; with MDA-MB-231 it was 1920 nM.
